Measured values: ChEMBL document CHEMBL1121555, “Quantitative structure-selectivity relationships. Comparison of the inhibition of Escherichia coli and bovine liver dihydrofolate reductase by 5-(substituted-benzyl)-2,4-diaminopyrimidines” (J Med Chem, 1980)

Experiment: Compound was evaluated for the partition coefficients probably at the […] at the aqueous phase 0.1 N HCl
Type: physicochemical
Conditions: 0.1 N HCl (aqueous phase)

| SMILES | logD |
| --- | --- |
| CC(=O)Nc1ccc(Cc2cnc(N)nc2N)cc1 | -1.94 |
| Cc1cccc(Cc2cnc(N)nc2N)c1 | -0.51 |
| Nc1ncc(Cc2ccc([N+](=O)[O-])cc2)c(N)n1 | -1.03 |
| Nc1ncc(Cc2cccc(F)c2)c(N)n1 | -0.8 |
| Nc1ncc(Cc2cccc(OCc3ccccc3)c2)c(N)n1 | 0.53 |

Results, then the molecule that gave them:

| logD | SMILES |
| --- | --- |
| -0.92 | COc1cccc(Cc2cnc(N)nc2N)c1 |
| -1.03 | Nc1ncc(Cc2ccccc2)c(N)n1 |
| -0.36 | Nc1ncc(Cc2cccc(Cl)c2)c(N)n1 |

Experiment: Compound was evaluated for the partition coefficients probably at the pH >> 7.2 at the aqueous phase 0.1 N NaOH
Conditions: 0.1 N NaOH (aqueous phase)

| logD | SMILES |
| --- | --- |
| 1.58 | Nc1ncc(Cc2ccccc2)c(N)n1 |
